Patent US8940742B2, “Heterocyclic compounds and uses thereof” (Infinity Pharmaceuticals, Inc., priority 2012, dated 2015)

Assays:
[1] = molecular target: T1, PI3K α (Homo sapiens, UniProt P42336); assay: PI3-Kinase Promega ADP-Glo Max assay; assay type: biochemical; settings: 20 nM kinase, 3 mM ATP, 500 uM diC8-PtdInsP
T1 construct: purchased Millipore
Experimental: (§1) Promega ADP-Glo Max assay kit (Cat. No. V7002) was utilized to determine IC50 values for α, β, δ and γ isoforms of human Class I PI3 kinases (Millipore). Samples of kinase (20 nM α or δ, 40 nM β or γ isoform) were incubated with compound for 15 minutes at room temperature in reaction buffer (15 mM HEPES pH 7.4, 20 mM NaCl, 1 mM EGTA, 0.02% Tween 20, 10 mM MgCl2, 0.2 mg/mL bovine-γ-globulins) followed by addition of ATP/diC8-PtdInsP mixture to give final concentrations of 3 mM ATP and 500 uM diC8-PtdInsP. Reactions were incubated at room temperature for 2 hours followed by addition of 25 uL of stop solution. After a 40-minute incubation at room temperature, 50 uL of Promega detection mix was added followed by incubation for 1 hour at room temperature. Plates were then read on Envision plate reader in luminescence mode. Data was converted to % inhibition using the following equation below:
(§2) [formula] where S is the sample luminescence, Pos is a positive control without added PI3K, Neg is the negative control without added compound. Data was then plotted as % inhibition vs compound concentration. Data fit to 4 parameter logistic equation to determine IC50 values: […]
(§3) Certain compounds provided herein were tested in PI3-Kinase Promega Assay using procedures as described above to determine IC50 values for α, β, δ and/or γ isoforms.

[2] = molecular target: T2, PI3K δ (Homo sapiens, UniProt O00329); assay: PI3-Kinase Promega ADP-Glo Max assay; assay type: biochemical; settings: 20 nM kinase, 3 mM ATP, 500 uM diC8-PtdInsP
T2 construct: purchased Millipore
T2 sequence (O00329 whole entry): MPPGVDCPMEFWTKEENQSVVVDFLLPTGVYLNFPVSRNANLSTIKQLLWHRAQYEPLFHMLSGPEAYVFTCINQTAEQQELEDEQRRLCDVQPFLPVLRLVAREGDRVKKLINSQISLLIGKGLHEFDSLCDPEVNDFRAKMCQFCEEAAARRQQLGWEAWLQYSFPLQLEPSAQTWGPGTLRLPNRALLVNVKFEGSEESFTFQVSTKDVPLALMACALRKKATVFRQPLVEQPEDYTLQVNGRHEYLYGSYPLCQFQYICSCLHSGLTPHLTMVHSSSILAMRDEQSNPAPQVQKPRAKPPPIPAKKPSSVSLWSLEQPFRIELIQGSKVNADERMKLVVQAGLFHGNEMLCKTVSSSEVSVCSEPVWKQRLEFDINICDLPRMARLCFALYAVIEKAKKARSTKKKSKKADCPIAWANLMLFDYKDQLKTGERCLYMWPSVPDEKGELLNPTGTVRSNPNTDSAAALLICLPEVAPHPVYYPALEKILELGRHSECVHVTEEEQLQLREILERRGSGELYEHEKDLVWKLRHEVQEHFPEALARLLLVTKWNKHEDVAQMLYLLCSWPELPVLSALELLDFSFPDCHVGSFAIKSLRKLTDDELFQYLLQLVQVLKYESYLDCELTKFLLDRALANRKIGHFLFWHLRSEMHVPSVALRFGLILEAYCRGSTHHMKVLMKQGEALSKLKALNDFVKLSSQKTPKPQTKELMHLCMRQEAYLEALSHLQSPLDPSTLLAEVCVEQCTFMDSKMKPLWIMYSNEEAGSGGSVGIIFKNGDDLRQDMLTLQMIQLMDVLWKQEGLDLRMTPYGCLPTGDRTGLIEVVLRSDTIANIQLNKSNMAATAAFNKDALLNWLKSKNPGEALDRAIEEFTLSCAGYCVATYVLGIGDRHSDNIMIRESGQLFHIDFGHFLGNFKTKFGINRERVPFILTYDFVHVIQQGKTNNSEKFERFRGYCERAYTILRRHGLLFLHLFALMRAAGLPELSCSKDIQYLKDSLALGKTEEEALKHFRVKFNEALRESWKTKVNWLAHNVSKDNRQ
T2 sequence (P27986 whole entry partner): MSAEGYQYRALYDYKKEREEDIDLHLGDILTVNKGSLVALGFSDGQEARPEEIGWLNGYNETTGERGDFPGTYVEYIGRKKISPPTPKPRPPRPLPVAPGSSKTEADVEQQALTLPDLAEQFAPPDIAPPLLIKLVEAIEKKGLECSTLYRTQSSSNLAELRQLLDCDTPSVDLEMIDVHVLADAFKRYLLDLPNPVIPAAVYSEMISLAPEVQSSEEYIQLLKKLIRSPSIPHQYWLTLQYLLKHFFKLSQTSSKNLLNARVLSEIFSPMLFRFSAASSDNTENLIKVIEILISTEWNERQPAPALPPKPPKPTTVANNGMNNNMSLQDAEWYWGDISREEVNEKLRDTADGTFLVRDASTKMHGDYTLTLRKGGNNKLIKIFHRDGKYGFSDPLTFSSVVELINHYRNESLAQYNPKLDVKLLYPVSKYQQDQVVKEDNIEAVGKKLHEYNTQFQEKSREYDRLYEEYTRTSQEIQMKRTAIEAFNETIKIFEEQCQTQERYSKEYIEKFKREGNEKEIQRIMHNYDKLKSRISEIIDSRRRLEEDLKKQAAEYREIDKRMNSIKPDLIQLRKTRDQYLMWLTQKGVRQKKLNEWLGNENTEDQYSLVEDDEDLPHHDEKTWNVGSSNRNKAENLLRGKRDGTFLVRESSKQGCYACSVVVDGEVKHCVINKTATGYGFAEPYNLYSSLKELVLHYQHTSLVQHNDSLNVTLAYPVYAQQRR
Experimental: as §1, §2, §3

[3] = molecular target: T3, PI3K β (Homo sapiens, UniProt P42338); assay: PI3-Kinase Promega ADP-Glo Max assay; assay type: biochemical; settings: 40 nM kinase, 3 mM ATP, 500 uM diC8-PtdInsP
T3 construct: purchased Millipore
Experimental: as §1, §2, §3

[4] = molecular target: T4, Raw264.7 p110 γ (Mus musculus, UniProt Q9JHG7); assay: Raw264.7 p110 γ cellular assay (phospho-AKT); assay type: cell-based; settings: serum-starved RAW264.7 cells stimulated with C5a
T4 construct: reduction of phospho-AKT in stimulated RAW 264.7 cells; endogenous in cells; host or cells: RAW264.7 macrophages
T4 sequence (Q9JHG7 whole entry): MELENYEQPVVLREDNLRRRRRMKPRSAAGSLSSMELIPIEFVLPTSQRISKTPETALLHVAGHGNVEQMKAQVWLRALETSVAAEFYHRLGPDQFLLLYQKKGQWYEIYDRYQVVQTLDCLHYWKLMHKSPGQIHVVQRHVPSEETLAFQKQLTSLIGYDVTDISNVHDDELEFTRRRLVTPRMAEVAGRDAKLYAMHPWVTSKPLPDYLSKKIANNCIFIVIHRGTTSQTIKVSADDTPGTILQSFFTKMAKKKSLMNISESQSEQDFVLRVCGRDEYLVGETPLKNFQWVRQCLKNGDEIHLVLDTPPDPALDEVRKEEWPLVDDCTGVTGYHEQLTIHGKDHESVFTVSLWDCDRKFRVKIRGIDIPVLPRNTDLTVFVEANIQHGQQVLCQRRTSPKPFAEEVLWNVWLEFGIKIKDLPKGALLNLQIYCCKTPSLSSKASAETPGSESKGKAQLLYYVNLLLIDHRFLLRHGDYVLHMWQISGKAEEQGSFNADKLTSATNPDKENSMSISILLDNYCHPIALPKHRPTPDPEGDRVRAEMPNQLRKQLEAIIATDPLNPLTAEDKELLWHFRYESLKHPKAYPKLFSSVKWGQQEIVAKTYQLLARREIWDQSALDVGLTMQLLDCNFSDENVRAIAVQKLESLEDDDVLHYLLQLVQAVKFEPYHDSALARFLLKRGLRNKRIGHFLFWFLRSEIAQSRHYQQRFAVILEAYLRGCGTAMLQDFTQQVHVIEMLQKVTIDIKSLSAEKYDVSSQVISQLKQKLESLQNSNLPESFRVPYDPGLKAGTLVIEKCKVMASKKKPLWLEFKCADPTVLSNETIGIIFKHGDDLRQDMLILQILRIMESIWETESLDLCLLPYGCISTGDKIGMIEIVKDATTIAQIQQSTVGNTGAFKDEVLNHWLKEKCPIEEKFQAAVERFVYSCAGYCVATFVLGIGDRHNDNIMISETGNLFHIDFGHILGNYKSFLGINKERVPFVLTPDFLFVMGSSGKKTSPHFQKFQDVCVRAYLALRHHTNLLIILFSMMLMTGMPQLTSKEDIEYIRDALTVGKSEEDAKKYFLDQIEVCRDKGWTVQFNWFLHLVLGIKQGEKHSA
Text: (b) PI3K-γ Selective Assay
Briefly, serum-starved PAW264.7 cells are stimulated with a known GPCR agonist C5a. […] Cells can be treated with test compounds prior to, simultaneously with, or subsequent to the stimulation by C5a. RAW 264.7 cells respond to the complement component fragment C5a through activation of the C5a receptor, and the C5a receptor activates macrophages and induces cell migration.

[5] = molecular target: T5, PI3K γ (Homo sapiens, UniProt P48736); assay: PI3-Kinase Promega ADP-Glo Max assay; assay type: biochemical; settings: 40 nM kinase, 3 mM ATP, 500 uM diC8-PtdInsP
T5 construct: purchased Millipore
Experimental: Promega ADP-Glo Max assay kit (Cat. No. V7002) was utilized to determine IC50 values for α, β, δ and γ isoforms of human Class I PI3 kinases (Millipore). […] Reactions were incubated at room temperature for 2 hours followed by addition of 25 uL of stop solution. After a 40-minute incubation at room temperature, 50 uL of Promega detection mix was added followed by incubation for 1 hour at room temperature. Plates were then read on Envision plate reader in luminescence mode. Data was converted to % inhibition using the following equation below:
[formula] where S is the sample luminescence, Pos is a positive control without added PI3K, Neg is the negative control without added compound. Data was then plotted as % inhibition vs compound concentration.
as §3

[6] = molecular target: RAJI p110 δ (Homo sapiens, UniProt O00329); assay: RAJI p110 δ cellular assay (phospho-AKT);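 note: potency based on lowered phosphorylated AKT in RAJI cells, as a readout of PI3K-δ dependent B-cell receptor signaling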
Sequence of RAJI p110 δ (O00329 whole entry): as the sequence (O00329 whole entry) above
Sequence of RAJI p110 δ (P27986 whole entry partner): as the sequence (P27986 whole entry partner) above
Text: (a) PI3K-δ Selective Assay
Reduction of phospho-AKT is indicative of compounds that may inhibit B-cell proliferation and function in certain diseases.

T1 sequence (P42336 whole entry): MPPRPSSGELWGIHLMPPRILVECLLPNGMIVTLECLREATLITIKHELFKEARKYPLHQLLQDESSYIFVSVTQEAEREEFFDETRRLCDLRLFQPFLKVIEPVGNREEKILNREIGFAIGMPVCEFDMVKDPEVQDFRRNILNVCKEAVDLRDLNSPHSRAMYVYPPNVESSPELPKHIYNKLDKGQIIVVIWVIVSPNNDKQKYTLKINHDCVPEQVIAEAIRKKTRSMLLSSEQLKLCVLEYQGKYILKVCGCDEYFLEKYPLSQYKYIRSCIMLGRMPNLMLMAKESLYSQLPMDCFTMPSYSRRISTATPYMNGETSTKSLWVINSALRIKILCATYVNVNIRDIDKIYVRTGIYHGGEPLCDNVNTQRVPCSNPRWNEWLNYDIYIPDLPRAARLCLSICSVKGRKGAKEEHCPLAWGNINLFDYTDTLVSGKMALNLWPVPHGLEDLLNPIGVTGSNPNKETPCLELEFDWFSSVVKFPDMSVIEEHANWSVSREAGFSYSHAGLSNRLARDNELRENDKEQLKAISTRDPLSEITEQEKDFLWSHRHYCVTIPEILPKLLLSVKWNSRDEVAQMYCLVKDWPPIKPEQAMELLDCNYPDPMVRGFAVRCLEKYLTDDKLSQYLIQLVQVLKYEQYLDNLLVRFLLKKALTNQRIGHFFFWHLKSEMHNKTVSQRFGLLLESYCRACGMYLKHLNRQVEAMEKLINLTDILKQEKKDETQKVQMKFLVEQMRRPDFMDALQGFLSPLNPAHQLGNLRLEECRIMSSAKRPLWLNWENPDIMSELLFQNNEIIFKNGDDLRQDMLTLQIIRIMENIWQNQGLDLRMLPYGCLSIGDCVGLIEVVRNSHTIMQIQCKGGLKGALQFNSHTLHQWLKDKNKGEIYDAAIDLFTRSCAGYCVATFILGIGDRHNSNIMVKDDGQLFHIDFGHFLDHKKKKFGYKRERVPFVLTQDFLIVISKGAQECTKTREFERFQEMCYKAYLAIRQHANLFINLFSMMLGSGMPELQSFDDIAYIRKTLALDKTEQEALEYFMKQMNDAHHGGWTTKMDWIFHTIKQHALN
T1 sequence (P27986 whole entry partner): as the sequence (P27986 whole entry partner) above

IC50 [1] [nM] | IC50 [2] [nM] | IC50 [3] [nM] | IC50 [4] [nM] | IC50 [5] [nM] | IC50 [6] [nM] | SMILES
> 10000 | 100 to 1000 | 1000 to 10000 | < 100 | 1000 to 10000 | < 100 | C[C@H](NC(=O)c1cncc2cccnc12)c1cc2cccc(Cl)c2c(=O)n1-c1ccccc1 [Compound 45]
> 10000 | 1000 to 10000 | > 10000 | 100 to 1000 | 100 to 1000 | < 100 | C[C@H](NC(=O)c1nccnc1N)c1cc2cccc(-c3cnn(C)c3)c2c(=O)n1-c1ccccc1 [Compound 54, (S)-3-amino-N-(1-(8-(1-methyl-1H-pyrazol-4-yl)-1-oxo-2-phenyl-1,2-dihydroisoquinolin-3-yl)ethyl)pyrazine-2-carboxamide]
> 10000 | < 100 | > 10000 | 1000 to 10000 | 1000 to 10000 | < 100 | C[C@H](NC(=O)c1nccnc1N)c1cc2cccc(-c3cccnc3)c2c(=O)n1-c1ccccc1 [Compound 55]
> 10000 | 100 to 1000 | > 10000 | 1000 to 10000 | 1000 to 10000 | < 100 | C[C@H](NC(=O)c1nccnc1N)c1cc2cccc(-c3cc[nH]n3)c2c(=O)n1-c1ccccc1 [Compound 59]
1000 to 10000 | 1000 to 10000 | 1000 to 10000 | 100 to 1000 | 100 to 1000 | 100 to 1000 | C[C@H](NC(=O)c1cnn2cccnc12)c1cc2cccc(Cl)c2c(=O)n1-c1ccc(F)cc1 [Compound 62]
1000 to 10000 | 1000 to 10000 | 1000 to 10000 | < 100 | 1000 to 10000 | < 100 | C[C@H](NC(=O)c1cncc2cccnc12)c1cc2cccc(Cl)c2c(=O)n1-c1ccc(F)cc1 [Compound 65]
> 10000 | 1000 to 10000 | 1000 to 10000 | < 100 | 100 to 1000 | < 100 | C[C@H](NC(=O)c1c(N)nn2cccnc12)c1cc2cccc(C(F)(F)F)c2c(=O)n1-c1ccccc1 [Compound 71]
1000 to 10000 | 1000 to 10000 | 100 to 1000 | < 100 | < 100 | < 100 | C[C@H](NC(=O)c1c(N)nn2cccnc12)c1cc2cccc(Cl)c2c(=O)n1-c1ccc(F)cc1 [Compound 72]
1000 to 10000 | 1000 to 10000 | 100 to 1000 | < 100 | 100 to 1000 | < 100 | CC(C)n1c([C@H](C)NC(=O)c2c(N)nn3cccnc23)cc2cccc(Cl)c2c1=O [Compound 73]
1000 to 10000 | 100 to 1000 | < 100 | < 100 | 100 to 1000 | < 100 | C[C@H](NC(=O)c1c(N)nn2cccnc12)c1cc2cccc(Cl)c2c(=O)n1C [Compound 74]
1000 to 10000 | 1000 to 10000 | 1000 to 10000 | < 100 | < 100 | 100 to 1000 | C[C@H](NC(=O)c1c(N)nn2cccnc12)c1cc2cccc(Cl)c2c(=O)n1-c1ccc(F)c(F)c1 [Compound 75]
100 to 1000 | 100 to 1000 | < 100 | < 100 | 100 to 1000 | < 100 | C[C@H](NC(=O)c1c(N)nn2cccnc12)c1cc2cccc(Cl)c2c(=O)n1C1CC1 [Compound 77]
1000 to 10000 | 100 to 1000 | 100 to 1000 | < 100 | < 100 | < 100 | C[C@H](NC(=O)c1c(N)nn2cccnc12)c1cc2cccc(Cl)c2c(=O)n1-c1cccc(F)c1 [Compound 78]
> 10000 | > 10000 | > 10000 | 100 to 1000 | 1000 to 10000 | 1000 to 10000 | Cc1cnc(C(=O)N[C@@H](C)c2cc3cccc(C(F)(F)F)c3c(=O)n2-c2ccccc2)c(N)n1 [Compound 80]
> 10000 | 1000 to 10000 | 1000 to 10000 | 100 to 1000 | 1000 to 10000 | 100 to 1000 | Cc1ccn2ncc(C(=O)N[C@@H](C)c3cc4cccc(Cl)c4c(=O)n3-c3ccccc3)c2n1 [Compound 82]
1000 to 10000 | 1000 to 10000 | 100 to 1000 | < 100 | 100 to 1000 | < 100 | CNS(=O)(=O)c1cccc(-c2cnc(N)c(C(=O)N[C@@H](C)c3cc4cccc(Cl)c4c(=O)n3-c3ccccc3)n2)c1 [Compound 83]
1000 to 10000 | 1000 to 10000 | 100 to 1000 | < 100 | < 100 | < 100 | C[C@H](NC(=O)c1nc(-c2cccc(NS(C)(=O)=O)c2)cnc1N)c1cc2cccc(Cl)c2c(=O)n1-c1ccccc1 [Compound 85]
1000 to 10000 | 1000 to 10000 | 1000 to 10000 | < 100 | 100 to 1000 | < 100 | C[C@H](NC(=O)c1nc(-c2cccc(S(=O)(=O)NC(C)(C)C)c2)cnc1N)c1cc2cccc(Cl)c2c(=O)n1-c1ccccc1 [Compound 86]
1000 to 10000 | 1000 to 10000 | > 10000 | 100 to 1000 | 100 to 1000 | 1000 to 10000 | CC(C)Oc1ccc(-c2cnc(N)c(C(=O)N[C@@H](C)c3cc4cccc(Cl)c4c(=O)n3-c3ccccc3)n2)cc1F [Compound 87]
> 10000 | > 10000 | > 10000 | 1000 to 10000 | 1000 to 10000 | > 10000 | CC(C)Oc1ccc(-c2cnc(N)c(C(=O)N[C@@H](C)c3cc4cccc(Cl)c4c(=O)n3-c3ccccc3)n2)cc1Cl [Compound 88]
> 10000 | 1000 to 10000 | 1000 to 10000 | 100 to 1000 | 1000 to 10000 | 100 to 1000 | Cc1cnc(N)c(C(=O)N[C@@H](C)c2cc3cccc(Cl)c3c(=O)n2-c2ccccc2)n1 [Compound 89]
> 10000 | > 10000 | > 10000 | 100 to 1000 | 1000 to 10000 | 1000 to 10000 | C[C@H](NC(=O)c1nc(-c2ccc(S(C)(=O)=O)cc2)cnc1N)c1cc2cccc(Cl)c2c(=O)n1-c1ccccc1 [Compound 90]
> 10000 | 1000 to 10000 | 1000 to 10000 | 100 to 1000 | 1000 to 10000 | 100 to 1000 | C[C@H](NC(=O)c1nc(-c2cccc(S(=O)(=O)N(C)C)c2)cnc1N)c1cc2cccc(Cl)c2c(=O)n1-c1ccccc1 [Compound 91]
> 10000 | 1000 to 10000 | 1000 to 10000 | 1000 to 10000 | 1000 to 10000 | 1000 to 10000 | C[C@H](NC(=O)c1nc(-c2cccc(S(=O)(=O)N3CCCC3)c2)cnc1N)c1cc2cccc(Cl)c2c(=O)n1-c1ccccc1 [Compound 92]
1000 to 10000 | 1000 to 10000 | 1000 to 10000 | < 100 | 100 to 1000 | 100 to 1000 | COc1ccc(-c2cnc(N)c(C(=O)N[C@@H](C)c3cc4cccc(Cl)c4c(=O)n3-c3ccccc3)n2)cc1OC [Compound 93]
> 10000 | 1000 to 10000 | 1000 to 10000 | < 100 | 1000 to 10000 | < 100 | C[C@H](NC(=O)c1nc(-c2cccc(S(=O)(=O)NC3CC3)c2)cnc1N)c1cc2cccc(Cl)c2c(=O)n1-c1ccccc1 [Compound 96]
1000 to 10000 | 1000 to 10000 | 100 to 1000 | < 100 | 100 to 1000 | < 100 | CC(C)NS(=O)(=O)c1cccc(-c2cnc(N)c(C(=O)N[C@@H](C)c3cc4cccc(Cl)c4c(=O)n3-c3ccccc3)n2)c1 [Compound 97]
> 10000 | 1000 to 10000 | > 10000 | 100 to 1000 | 1000 to 10000 | 100 to 1000 | CC(C)Oc1ccc(-c2cnc(N)c(C(=O)N[C@@H](C)c3cc4cccc(Cl)c4c(=O)n3-c3ccccc3)n2)cn1 [Compound 98]
